Test results from US20150299277A1, “AGENT FOR TREATING OR PREVENTING SYSTEMIC INFLAMMATORY RESPONSE SYNDROME” (THE UNIVERSITY OF TOKYO, priority 2012, published 2015).
Entries after “also recorded” stand apart in the source; their conditions may differ. Ends that are not written are not given here.

How the values were obtained:
Calf Thymus Histones = test: Aggregation with histone, absorbance at 310 nm; type: binding; details: mixture with Calf Thymus Histones
Description: The lower left figure and the lower right figure show the measurement results of absorbance at 310 nm of a mixture of a wild-type or oligomer formation capacity-deficient mutant of PTX3 N-terminal domain having each concentration and 0.1 mg/mL Calf Thymus Histones at 1:1 vol.
The aggregation activity of PTX3 and other pentraxins to histone was evaluated. Calf Thymus Histones (50 μg/mL) were mixed with a PTX3 fragment or the other pentraxin at each concentration, and the absorbance at the wavelength of 310 nm was measured. Before mixing, samples were dialyzed against 4 mM CaCl2-containing TBS.

[1] = test system: Calf Thymus Histones on HUVEC; test: Cytotoxic assay: suppression of histone cytotoxicity on HUVEC; type: cell-based, human
Description: After culturing for 1 hr in a medium concurrently containing 100 μg/mL Calf Thymus Histones and APC (200 nM), PTX3 (40 μg/mL), CRP (40 μg/mL) or SAP (40 μg/mL), the level of toxic activity was measured by FACS.
(§1) Normal human umbilical vein endothelial cells (HUVECs) were cultured in EGM2 medium (Clonetics). The cells after culture were washed with PBS, added with Opti-MEM medium containing an product of incubation of activated protein C (APC), PTX3, C reactive protein (CRP) or Serum amyloid P component (SAP) with histone for 1 hr, and the cells were further cultured for 1 hr. Propidium iodide (PI) was added to the medium after culture at a final concentration of 10 μg/mL, and the cells were stained for 10 min. The cells were washed with PBS, detached and analyzed by flow cytometry.
The histone cytotoxicity on HUVEC was evaluated by propidium iodide (PI) staining.
Lastly, capacity of suppressing the cytotoxic activity of histone was confirmed. Since this experiment requires a certain amount of protein and an endotoxin-elimination as treatment, a protein was expressed and purified at a 500 mL culture scale, and subjected to an endotoxin-elimination treatment (FIG. 18). In the case of PTX3 N-terminal domain, about 10 mg was obtained at a 500 mL culture scale, and a loss by the endotoxin-elimination treatment was scarcely observed. […] A capacity of fragment proteins obtained at a 500 mL scale on HUVEC to suppress histone cytotoxicity was studied. […] In consideration of the experiments relating to the binding and aggregation, all fragments were considered to possibly have a certain level of suppressive capacity.

histone H4 on HUVEC = test: as above; type: cell-based, human
Description: as §1
Using each recombinant histone instead of Calf Thymus Histones, a suppressive effect of full-length PTX3 or the N-terminal domain of PTX3 on histone cytotoxicity was studied in the same manner.
Lastly, capacity of suppressing the cytotoxic activity of histone was confirmed. Since this experiment requires a certain amount of protein and an endotoxin-elimination as treatment, a protein was expressed and purified at a 500 mL culture scale, and subjected to an endotoxin-elimination treatment (FIG. 18). In the case of PTX3 N-terminal domain, about 10 mg was obtained at a 500 mL culture scale, and a loss by the endotoxin-elimination treatment was scarcely observed. […] A capacity of fragment proteins obtained at a 500 mL scale on HUVEC to suppress histone cytotoxicity was studied. […]

| Substance | aggregation with Calf Thymus Histones, absorbance at 310 nm (Calf Thymus Histones) | suppression of toxic activity of Calf Thymus Histones on HUVEC ([1]; 100 μg/mL Calf Thymus Histones, 40 μg/mL protein, 1 hr, PI staining, FACS) | capacity to suppress cytotoxicity of recombinant histone H4 on HUVEC (histone H4 on HUVEC) | capacity to suppress cytotoxicity of bovine thymus-derived histone on HUVEC [1] |
| --- | --- | --- | --- | --- |
| SAP: Serum amyloid P component, short pentraxin used as comparator [reference compound] | no aggregation capacity; also recorded: scarcely showed an aggregation activity | do not have such suppressive effect | – | – |
| PTXN18: E. coli-expressed fragment of about 50 amino acids of PTX3 N-terminal domain with His-tag and TEV sequence, probably amino acids 18-67 (ENLYFQGENSDDYDLMYVNLDNEIDNGLHPTEDPTPCDCGQEHSEWDKLFIMLENSQ; not fully specified; cysteine pairing not given here) | – | – | almost equivalent to that of the PTX3 N-terminal domain | almost equivalent to that of the PTX3 N-terminal domain |
